Entries after “also recorded” stand apart in the source; their conditions may differ.
Tests used:
[1] = tested on: CCI-SN rats; conditions: rat, in vivo; cited from earlier work
[2] = tested on: CCI-ION rats; type: in vivo, rat; conditions: rat, in vivo
Procedure: Rats are anaesthetized with sodium pentobarbital (50 mg/kg i.p.). Unilateral CCI-ION is performed under direct visual control using a Zeiss microscope (10-25×) essentially as described by Vos et al (Vos B P, Strassman A M, Maciewicz R J (1994), J. Neurosci. 14: 2708-2723). Briefly, the head is fixed in a Horsley-Clarke stereotaxic frame and a midline scalp incision is made, exposing skull and nasal bone. The edge of the orbit, formed by the maxillary, frontal, lacrimal, and zygomatic bones, is dissected free. The orbital contents are gently deflected to give access to the infraorbital nerve which is dissected free at its most rostral extent in the orbital cavity, just caudal to the infraorbital foramen. Only 5 mm of the nerve can be freed (Vos et al.), providing the space for placement of two chromic catgut (5-0) ligations tied loosely (with about 2 mm spacing) around it. […] Finally, scalp incision is closed using silk sutures (4-0). In sham-operated rats, the ION is exposed using the […] procedure, but is not ligated.
Mechanical sensitivity is determined with a graded series of eleven von Frey filaments (Bioseb, Bordeaux, France). The filaments produce a bending force of 0.07, 0.16, 0.40, 0.60, 1.00, 2.00, 4.00, 6.00, 8.00, 10.00 and 12.00 g, respectively. The stimuli are applied within the ION territory (vibrissae pad) three times at the nerve-injured side and then at the contralateral side for a total of 6 applications of each filament per rat, always beginning with the filament producing the lowest force. The von Frey filaments are applied at least 3 seconds after the rats returned to their initial resting state. For each session, the complete series of von Frey filaments is tested in increasing force order.
The latter responses represent the highest scores in the rank-ordered response scoring system initially described by Vos et al. The minimal force filament causing at least one among these responses (to at least 2 out of the 3 an each side) allows determination of the mechanical response threshold. The 12.00 g filament is the cut-off threshold (no tissue-injury occurs at this pressing force).
(§1) For studying the effects of acute treatment with tapentadol in CCI-ION rats, tapentadol (1 or 10 mg/kg i.p.) or its vehicle (0.9% NaCl i. p.) was injected acutely 14 days after surgery. Sham-operated rats were treated in parallel. Pressure threshold values to trigger nocifensive responses to von Frey filaments application onto the plantar surface of ipsilateral hindpaw were determined at various times after acute injection of tapentadol or saline. Cut-off was fixed at 12 g pressure.
(§2) For studying the effects of subchronic treatment with tapentadol in CCI-ION rats, starting on day 16 (Time=D) after surgery, they received i.p. injections of tapentadol (10 mg/kg, twice daily, at 10:00 AM and 6:00 PM) or saline (at the same day times as the drug) for four days. On the following day (day 20 after surgery), both tapentadol- and saline-pretreated CCI-SN rats were i.p. injected with Tapentadol (10 mg/kg; Time=0) and then subjected to von Frey filaments' test applied to ipsilateral hindpaw for determination of pressure threshold values at various times thereafter.
14 days after CCI-ION surgery, rats were injected with reboxetine (10 mg/kg i.p.) or its vehicle (0.9% NaCl) followed, 15 min later, by morphine (3 mg/kg s.c.) or its vehicle (0.9% NaCl) and subjected to von Frey filament tests for the following 4 hours. Sham-operated rats were treated in parallel.

[3] = tested on: CCI-SN rats; type: in vivo, rat; conditions: rat, in vivo
Procedure: Rats are anaesthetized with sodium pentobarbital (50 mg/kg i.p.). Unilateral CCI-SN is performed under direct visual control using a Zeiss microscope (10-25×) essentially as described by Bennett and Xie (G. J. Bennett et al., Pain, 33 (1988) 87-107).
Mechanical sensitivity is determined with a graded series of von Frey filaments (Bioseb, Bordeaux, France; bending force: 0.07-60.0 g). The stimuli are applied within the SN territory (midplantar surface of the left hindpaw) three times at the nerve-injured side (ipsilateral, left) and then at the contralateral side for a total of 6 applications of each filament per rat, always beginning with the filament producing the lowest force. The von Frey filaments are applied at least 3 seconds after the rats returned to their initial resting state. For each session, the complete series of von Frey filaments is tested in increasing force order. The minimal force filament causing a hindpaw withdrawal response allows determination of the mechanical response threshold. The 60 g filament is the cut-off threshold.
as §1, with “CCI-SN” for “CCI-ION”, “(1, 3 and” for “(1 or”, “60” for “12”
as §2, with “CCI-SN” for “CCI-ION”, “filaments'test” for “filaments' test”
In a second part of this study (B), unilateral chronic constriction injury to the sciatic nerve was performed two weeks before acute treatment with reboxetine (10 mg/kg i.p.), tapentadol (10 mg/kg i.p.) or saline (0.5 ml i.p./rat). Pressure threshold values were then determined at various times using von Frey filaments test applied to ipsilateral hindpaw.
Morphine (1, 3 and 10 mg/kg s.c.) or its vehicle (0.9% NaCl) was injected acutely 14 days after CCI-SN surgery. Sham-operated rats were treated in parallel. Pressure threshold values to trigger nocifensive responses to von Frey filaments application onto the plantar surface of ipsilateral hindpaw were determined at various times after acute injection of morphine or saline.
14 days after CCI-SN surgery, rats were injected with reboxetine (10 mg/kg i.p.) or its vehicle (0.9% NaCl) followed, 15 min later, by morphine (1 mg/kg s.c.) or its vehicle (0.9% NaCl) and subjected to von Frey filament tests for the following 4 hours. Sham-operated rats were treated in parallel.
The results are depicted in FIG. 11.

[4] = tested on: CCI-ION rats; conditions: rat, in vivo; cited from earlier work
[5] = tested on: BDNF-induced allodynia; experiment: Mechanical allodynia induced by intrathecal administration of BDNF in healthy rats (von Frey filaments test); type: in vivo, rat
Procedure: In a first part of this study, BDNF (0.3 ng in 25 μl of saline per rat) or saline (25 μl) was injected intrathecally in adult male rats slightly anesthetized with isoflurane (according to Mestre et al. (1994), J. Pharmacol. Toxicol. Meth., 32, 197-200), and animals were subjected to von Frey filaments test applied to hindpaws at various times thereafter.
In a second part of this study, tapentadol (3 or 10 mg/kg i.p.) or saline was administered to rats on the 7th day (Time=0 on abscissa) after intrathecal injection of BDNF (Time=C) as described above. Pressure threshold values were determined using von Frey filaments test applied to hindpaws.
In a first part of this study (A), reboxetine (10 mg/kg i.p.; mesylate, Ascent Scientific, Bristol, UK), tapentadol (10 mg/kg i.p.) or saline (0.5 ml i.p./rat) was injected on the 7th day after intrathecal administration of BDNF (0.3 ng in 25 μl of saline per rat). Pressure threshold values were determined at various times thereafter using von Frey filaments test applied to hindpaws.

[6] = tested on: BDNF-induced allodynia; experiment: as above; type: in vivo, rat; conditions: BDNF 0.3 ng i.t.; up to 11 days; data not shown

CN1CC[C@]23c4c5ccc(O)c4O[C@H]2[C@@H](O)C=C[C@H]3[C@H]1C5 [morphine]
effect on mechanical allodynia generated by CCI-SN [1]: significantly attenuate
anti-allodynic effect [2]: only a discrete effect
maximal increase in pressure threshold value as share of that determined in healthy intact rats [2]: 20%
anti-allodynic effect (pressure threshold to trigger hindpaw withdrawal) [3]: strongly anti-allodynic
increase in pressure threshold values [3]: only discrete increases
persistence of full reversal [3]: at least one hour
reversal of CCI-SN-induced mechanical allodynia [3]: fully reversed; also recorded: not completely reversed
time after injection at which full reversal was reached [3]: 30 min
effect on mechanical allodynia generated by CCI-ION [4]: ineffective

CCOc1ccccc1OC(c1ccccc1)C1CNCCO1 (centres unmarked) [reboxetine, reference compound]
maximal increase in pressure threshold values relative to that caused by 10 mg/kg i.p. of tapentadol ([5]; rat, in vivo): only one third
reversal of mechanical allodynia caused by intrathecal BDNF ([5]; rat, in vivo): significant but partial reversal
time at which the maximal increase in pressure threshold was reached ([5]; rat, in vivo): 45 min
anti-allodynic effect [2]: completely inactive
anti-allodynic effect compared to tapentadol (10 mg/kg i.p.) [3]: developed more slowly and was much less pronounced
increase in pressure threshold values [3]: only discrete increases
reversal of CCI-SN-induced decrease in pressure threshold values [3]: significant but only partial reversal

NC1=N[C@H](O)[C@H]2[C@H]3O[C@]4(O)O[C@@H]([C@@H](O)[C@@]2(N1)[C@@H]4O)[C@]3(O)CO [tetrodotoxin]
effect on mechanical allodynia generated by CCI-SN [1]: significantly attenuate
effect on mechanical allodynia generated by CCI-ION [4]: ineffective

B1: BDNF: neurotrophic factor injected intrathecally (0.3 ng per rat) to induce mechanical allodynia (protein, UniProt P23560 19-247, looked up)
Neurotrophic factor BDNF …: APMKEANIRGQGGLAYPGVRTHGTLESVNGPKAGSRGLTSLADTFEHVIEELLDEDQKVRPNEENNKDADLYTSRVMLSSQVPLEPPLLFLLEEYKNYLDAANMSMRVRRHSDPARRGELSVCDSISEWVTAADKKTAVDMSGGTVTVLEKVPVSKGQLKQYFYETKCNPMGYTKEGCRGIDKRHWNSQCRTTQSYVRALTMDSKKRIGWRFIRIDTSCVCTLTIKRGR
hindpaw pressure threshold values from day 4 to day 8 after injection ([5]; BDNF 0.3 ng i.t.): as low as those previously determined two weeks after surgery in CCI-SN rats
hindpaw pressure threshold values on the 11th day relative to untreated healthy rats ([5]; BDNF 0.3 ng i.t.): only half
pressure threshold value to trigger hindpaw withdrawal after intrathecal injection ([5]; BDNF 0.3 ng i.t., single injection, healthy rats): progressive and long lasting decrease
pressure threshold value within the vibrissal pad [6]: ~12 g
pressure threshold values, von Frey filaments applied within the vibrissal pad [6]: not significantly modified

From patent US20190274974A1, “Treatment of Pain Associated with Trigeminal Neuralgia” (priority 2011, published 2019)
